{"source": "patent US20210275518A1", "about": "“METHODS OF USING REBASTINIB IN THE TREATMENT OF DISORDERS” (Deciphera Pharmaceuticals, LLC, priority 2020, published 2021)", "key": {"ovarian cancer": {"system": "ovarian cancer", "assay": "Phase 1b/2 rebastinib + paclitaxel, Part 2 Cohort 3 (RECIST v1.1, CA-125 response)", "assay_type": "in vivo, human", "description": "(§1) Upon determination of the RP2D, Part 2 is initiated to dose up to 165 evaluable patients using the RP2D across five indication-specific cohorts. A Simon's two-stage design is applied to Part 2 to further evaluate the safety, tolerability, and preliminary efficacy of rebastinib in combination with paclitaxel in triple-negative breast (Cohort 1), inflammatory breast (Cohort 2), ovarian (Cohort 3), endometrial adenocarcinoma (Cohort 4), and gynecologic carcinosarcoma (Cohort 5) cancers. Each cohort initially enrolls up to 18 evaluable patients in the first stage. Patients must receive at least 1 dose of the combination and have 1 post-baseline assessment (including assessment of clinical progression) or be discontinued prior to the postbaseline disease assessment due to an AE at least possibly related to rebastinib, to be considered evaluable. Tumor response is assessed according to Response Evaluation Criteria in Solid Tumors (RECIST) Version 1.1. The decision to enroll patients beyond the first stage is based on response assessments obtained after the first post-dose response assessment of the last patient enrolled in the first stage of a cohort. […] If ≤4 responses are seen in a cohort, the cohort will be terminated. If >4 responses are seen prior to the last evaluable patient in the first stage, expanding the cohort may be triggered earlier. Enrollment in each cohort will pause between the first and second stage of the Simon two-stage for evaluation of response. Patients will receive study treatment until they develop progressive disease, experience unacceptable toxicity, or withdraw consent.\n29 patients with ovarian cancer were enrolled in this portion of the study as a safety population. Patients were treated with rebastinib (50 or 100 mg BID) in combination with 80 mg/m^2 intravenous weekly paclitaxel (day 1, day 8, and day 15 of repeated 28-day cycles). 10 of the patients treated with rebastinib were at a starting dose of 100 mg BID and 80 mg/m^2 weekly paclitaxel, of which the doses of 7 were reduced to 50 mg BID and 80 mg/m^2 weekly paclitaxel, and […] were at a starting dose of 50 mg BID and 80 mg/m^2 weekly paclitaxel. 23 (79%) patients received ≥4 prior anticancer regimens, and all patients received prior platinum and taxane-based therapy; 89% received anti-angiogenic therapy, 62% received anti-PARP therapy, and 31% received immunotherapy.\n24 of the 29 patients met the modified intention-to-treat (mITT) criteria. Anti-tumor activity was assessed using RECIST v1.1 and Gynecological Cancer Intergroup CA-125 response. From 24 patients in the mITT population, the objective response rate was 38% and the clinical benefit rate at 8 weeks was 88%.\n38 patients in a platinum-resistant ovarian cancer cohort were enrolled in this portion of the study as a safety population. Patients were treated with rebastinib (50 or 100 mg BID) in combination with 80 mg/m^2 intravenous weekly paclitaxel (day 1, day 8, and day 15 of repeated 28-day cycles). 34 of the 38 patients met the met the modified intention-to-treat (mITT) criteria. 27 (71%) patients received ≥4 prior anticancer regimens, and 97% patients received prior platinum and taxane-based therapy; 84% received bevacizumab, 66% received a PARP inhibitor, 31% received immunotherapy, and the average number of lines of therapy after platinum resistance was 2."}, "[1]": {"system": "Low Passage Champions TUMORGRAFT Models of Human Mesothelioma", "assay": "Preclinical rebastinib/carboplatin combination efficacy in mesothelioma PDx models", "assay_type": "in vivo, immunocompromised mice", "details": "Model 2; 25 mg/kg rebastinib intraperitoneal + 20 mg/kg carboplatin intravenous", "experimental": "This study was conducted to obtain preclinical evidence of rebastinib/carboplatin combination efficacy in mesothelioma to support clinical development. The study was an in vivo evaluation of rebastinib single agent and in combination with carboplatin (SOC), in Low Passage Champions TUMORGRAFT® Models of Human Mesothelioma in immunocompromised mice.\nMesothelioma PDx models were studied each with 8 animals per group for total of 4 groups per model. The study endpoint was when the mean tumor volume of the control reaches 1500 mm^3 or 60 days max. Terminal tumors were be collected, fixed, and embedded."}, "[2]": {"system": "gynecologic carcinosarcoma", "assay": "Phase 1b/2 rebastinib + paclitaxel, Part 2 Cohort 5 (RECIST v1.1)", "assay_type": "in vivo, human", "details": "Cycle 5, Day 1", "description": "as §1, with “Enrollment in each cohort will pause between the first and second stage of the Simon two-stage for evaluation of response. Patients will receive study treatment until they develop progressive disease, experience unacceptable toxicity, or withdraw consent.” left out"}, "[3]": {"system": "inflammatory breast cancer", "assay": "Phase 1b/2 rebastinib + paclitaxel, Part 2 Cohort 2 (RECIST v1.1)", "assay_type": "in vivo, human", "description": "as §1"}, "[4]": {"details": "Cohort 3, time point 1, of the twelve with stable disease at Cycle 3, Day 1, Cycle 5, Day 1"}, "[5]": {"details": "Cohort 3, time point 1, rebastinib + paclitaxel, Cycle 3, Day 1"}, "[6]": {"details": "Cohort 3, time point 2, 17 evaluable patients"}, "[7]": {"details": "Table 1, Cohort 3, time point 4, mITT N = 34, patients (%)"}, "[8]": {"details": "Table 1, Cohort 3, time point 4, n 12"}}}
{"compound": "CNC(=O)c1cc(Oc2ccc(NC(=O)Nc3cc(C(C)(C)C)nn3-c3ccc4ncccc4c3)c(F)c2)ccn1", "note": "[rebastinib]", "values": [{"measurement": "Patients with partial response", "setting": "ovarian cancer; [4]", "value": "three"}, {"measurement": "Patients with stable disease", "setting": "ovarian cancer; [4]", "value": "four"}, {"measurement": "Patients with partial response (second statement)", "setting": "ovarian cancer; Cohort 3, time point 1, of the twelve with stable disease at Cycle 3, Day 1, Cycle 5, Day 1 (stated a second time)", "value": "one"}, {"measurement": "Patients with stable disease", "setting": "ovarian cancer; Cohort 3, time point 1, of the twelve with stable disease at Cycle 3, Day 1, Cycle 5, Day 8", "value": "one"}, {"measurement": "Patients with stable disease", "setting": "ovarian cancer; Cohort 3, time point 1, of the twelve with stable disease at Cycle 3, Day 1, Cycle 8, Day 1", "value": "two"}, {"measurement": "Patients with partial response", "setting": "ovarian cancer; Cohort 3, time point 1, of the two with partial response at Cycle 3, Day 1, Cycle 5, Day 1", "value": "one"}, {"measurement": "Patients with partial response", "setting": "ovarian cancer; [5]", "value": "Two"}, {"measurement": "Patients with stable disease", "setting": "ovarian cancer; [5]", "value": "twelve"}, {"measurement": "CBR", "setting": "ovarian cancer; [6]", "value": 82, "unit": "%"}, {"measurement": "ORR", "setting": "ovarian cancer; [6]", "value": 29, "unit": "%"}, {"measurement": "Stable diseases", "setting": "ovarian cancer; [6]", "value": 9}, {"measurement": "Partial responses", "setting": "ovarian cancer; Cohort 3, time point 2, 17 evaluable patients, rebastinib 100 or 50 mg BID + paclitaxel", "value": 5}, {"measurement": "Muscular weakness, patients", "setting": "ovarian cancer; Cohort 3, time point 2, initially 100 mg BID rebastinib (10 patients)", "value": 4, "unit": "patients"}, {"measurement": "Muscular weakness at reduced dose", "setting": "ovarian cancer; Cohort 3, time point 2, reduced dose of 50 mg BID", "value": "No additional muscular weakness"}, {"measurement": "CA-125 response, patients", "setting": "ovarian cancer; Cohort 3, time point 3, 17 patients with CA-125 measurements", "value": "10 (59%)"}, {"measurement": "Clinical benefit rate at 8 weeks", "setting": "ovarian cancer; Cohort 3, time point 3, 24 patients mITT", "value": 88, "unit": "%"}, {"measurement": "Objective response rate", "setting": "ovarian cancer; Cohort 3, time point 3, 24 patients mITT, rebastinib 50 or 100 mg BID with weekly paclitaxel 80 mg/m^2", "value": 38, "unit": "%"}, {"measurement": "CA-125 response", "setting": "ovarian cancer; Cohort 3, time point 4, 17 of 26 evaluable patients", "value": 65.4, "unit": "%"}, {"measurement": "Clinical benefit rate at 8 weeks", "setting": "ovarian cancer; Cohort 3, time point 4, 34 patients mITT", "value": 88, "unit": "%"}, {"measurement": "Objective response rate (confirmed+unconfirmed)", "setting": "ovarian cancer; Cohort 3, time point 4, platinum-resistant ovarian cancer, 34 patients mITT, rebastinib 50 or 100 mg BID with weekly paclitaxel 80 mg/m^2", "value": 35, "unit": "%"}, {"measurement": "Best Overall Response: Confirmed Partial Response", "setting": "ovarian cancer; [7]", "value": "5 (14.7%)"}, {"measurement": "Best Overall Response: Not Evaluable", "setting": "ovarian cancer; [7]", "value": "3 (8.8%)"}, {"measurement": "Best Overall Response: Partial Response", "setting": "ovarian cancer; [7]", "value": "12 (35.3%)"}, {"measurement": "Best Overall Response: Progressive Disease", "setting": "ovarian cancer; [7]", "value": "1 (2.9%)"}, {"measurement": "Best Overall Response: Single Response Awaiting Confirmation", "setting": "ovarian cancer; [7]", "value": "4 (11.8%)"}, {"measurement": "Best Overall Response: Stable Disease", "setting": "ovarian cancer; [7]", "value": "18 (52.9%)"}, {"measurement": "Best Overall Response: Unconfirmed Single Response", "setting": "ovarian cancer; [7]", "value": "3 (8.8%)"}, {"measurement": "Duration of Response, Events (%)", "setting": "ovarian cancer; [8]", "value": "5 (41.7%)"}, {"measurement": "Time to Response, Mean (SD)", "setting": "ovarian cancer; [8]", "value": "3.1 (1.3)"}, {"measurement": "Duration of Response, Kaplan-Meier Median (80% CI)", "setting": "ovarian cancer; Table 1, Cohort 3, time point 4, n 12, NE: Not evaluated", "value": "5.5 (1.9, NE)"}, {"measurement": "Tumor inhibition", "setting": "[1]", "value": 38, "unit": "%"}, {"measurement": "Patients with partial response", "setting": "[2]", "value": "one"}, {"measurement": "Patients with partial response", "setting": "[3]; Cycle 3, Day 1", "value": "two"}, {"measurement": "Patients with stable disease", "setting": "[3]; Cycle 3, Day 1", "value": "one"}, {"measurement": "Patients with partial response", "setting": "[3]; Cycle 3, Day 1, Cycle 5, Day 1, and Cycle 8, Day 1", "value": "one"}, {"measurement": "Patients with stable disease", "setting": "[3]; both Cycle 3, Day 1 and Cycle 5, Day 1", "value": "one"}]}
